Assay results from ChEMBL document CHEMBL5154672, “Design and synthesis of HDAC inhibitors to enhance the therapeutic effect of diffuse large B-cell lymphoma by improving metabolic stability and pharmacokinetic characteristics” (Eur J Med Chem, 2022).

How the values were obtained:
[1] = test system: COLO-678; assay: Antiproliferative activity against human COLO-678 cells incubated for 72 hrs by luminescence assay; type: functional, cell-based; conditions: COLO-678, 72 h
[2] = AUC (0 to t) in CB.17 SCID mouse xenografted with human TMD8 cells at 100 mg/kg, po measured upto 24 hrs by LC-MS/MS analysis; type: ADME, organism-based; design: dose 100 mg/kg, time < 24 hrs, route po; conditions: in vivo
[3] = AUC (0 to infinity) in ICR mouse at 2 mg/kg, iv measured upto 24 hrs by LC-MS/MS analysis; type: ADME, organism-based; design: time < 24 hrs, dose 2 mg/kg, route iv; conditions: in vivo
[4] = test system: TMD8; assay: Induction of apoptosis in human TMD8 cells assessed as early apoptotic cells at 2 uM incubated for 24 hrs by Annexin V-FITC/PI staining based flow cytometric analysis (reference value: 0.24%); type: functional
[5] = MRT(0 to infinity) in CB.17 SCID mouse xenografted with human TMD8 cells at 25 mg/kg, po measured upto 24 hrs by LC-MS/MS analysis; type: ADME, organism-based; conditions: in vivo
[6] = test system: TMD8; assay: Induction of apoptosis in human TMD8 cells assessed as viable cells at 4 uM incubated for 24 hrs by Annexin V-FITC/PI staining based flow cytometric analysis (reference value: 96.4%); type: functional; conditions: read-out: Activity
[7] = test system: 786-0; assay: Antiproliferative activity against human 786-O cells incubated for 72 hrs by luminescence assay; type: functional, cell-based; conditions: 786-0, 72 h
[8] = test system: MOLT-4; assay: Antiproliferative activity against human MOLT-4 cells incubated for 72 hrs by luminescence assay; type: functional, cell-based; conditions: MOLT-4, 72 h
[9] = test system: TMD8; assay: Induction of apoptosis in human TMD8 cells assessed as early apoptotic cells at 0.5 uM incubated for 24 hrs by Annexin V-FITC/PI staining based flow cytometric analysis (reference value: 0.24%); type: functional
[10] = test system: Rec1; assay: Antiproliferative activity against human REC1 cells incubated for 72 hrs by luminescence assay; type: functional, cell-based; conditions: Rec1, 72 h
[11] = MRT(0 to infinity) in CB.17 SCID mouse xenografted with human TMD8 cells at 50 mg/kg, po measured upto 24 hrs by LC-MS/MS analysis; type: ADME, organism-based; conditions: in vivo
[12] = test system: TMD8; assay: Induction of apoptosis in human TMD8 cells assessed as late apoptotic cells at 4 uM incubated for 24 hrs by Annexin V-FITC/PI staining based flow cytometric analysis (reference value: 1.54%); type: functional
[13] = test system: TMD8; assay: Induction of apoptosis in human TMD8 cells assessed as late apoptotic cells at 0.5 uM incubated for 24 hrs by Annexin V-FITC/PI staining based flow cytometric analysis (reference value: 1.54%); type: functional
[14] = test system: HT-29; assay: Antiproliferative activity against human HT-29 cells incubated for 72 hrs by luminescence assay; type: functional, cell-based; conditions: HT-29, 72 h
[15] = Metabolic stability in human liver microsomes assessed as half life measured for 75 to 130 mins by LC-MS/MS analysis; type: ADME, Microsome; conditions: liver microsomes, time 75-130 min
[16] = test system: NCI-H441; assay: Antiproliferative activity against human NCI-H441 cells incubated for 72 hrs by luminescence assay; type: functional, cell-based; conditions: NCI-H441, 72 h
[17] = target: Histone deacetylase 1 (Homo sapiens, UniProt Q13547); assay: Inhibition of HDAC1 (unknown origin) using RHKK(Ac)AMC fluorogenic peptide as substrate preincubated for 10 mins followed by substrate addition for 1 hr in presence of ATP by fluoroscence based assay
[18] = MRT (0 to t) in CB.17 SCID mouse xenografted with human TMD8 cells at 50 mg/kg, po measured upto 24 hrs by LC-MS/MS analysis; type: ADME, organism-based; conditions: in vivo
[19] = target: Histone deacetylase 3 (Homo sapiens, UniProt O15379); assay: Inhibition of HDAC3 (unknown origin) using RHKK(Ac)AMC fluorogenic peptide as substrate preincubated for 10 mins followed by substrate addition for 1 hr in presence of ATP by fluoroscence based assay
[20] = test system: NCI-H460; assay: Antiproliferative activity against human NCI-H460 cells incubated for 72 hrs by luminescence assay; type: functional, cell-based; conditions: NCI-H460, 72 h
[21] = test system: TMD8; assay: Induction of apoptosis in human TMD8 cells assessed as viable cells at 0.5 uM incubated for 24 hrs by Annexin V-FITC/PI staining based flow cytometric analysis (reference value: 96.4%); type: functional; conditions: read-out: Activity
[22] = Metabolic stability in monkey liver microsomes assessed as half life measured for 75 to 130 mins by LC-MS/MS analysis; type: ADME, Macaca fascicularis, Microsome; conditions: cynomolgus monkey, time 75-130 min
[23] = Cmax in CB.17 SCID mouse xenografted with human TMD8 cells at 25 mg/kg, po measured upto 24 hrs by LC-MS/MS analysis; type: ADME, organism-based; design: dose 25 mg/kg, time < 24 hrs, route po; conditions: in vivo
[24] = test system: TMD8; assay: Induction of apoptosis in human TMD8 cells assessed as viable cells at 1 uM incubated for 24 hrs by Annexin V-FITC/PI staining based flow cytometric analysis (reference value: 96.4%); type: functional; conditions: read-out: Activity
[25] = AUC (0 to infinity) in CB.17 SCID mouse xenografted with human TMD8 cells at 25 mg/kg, po measured upto 24 hrs by LC-MS/MS analysis; type: ADME, organism-based; design: time < 24 hrs, dose 25 mg/kg, route po; conditions: in vivo
[26] = test system: SU-DHL-2; assay: Antiproliferative activity against human SUDHL2 cells incubated for 72 hrs by luminescence assay; type: functional, cell-based; conditions: SU-DHL-2, 72 h
[27] = Metabolic stability in mouse liver microsomes assessed as half life measured for 75 to 130 mins by LC-MS/MS analysis; type: ADME, Microsome; conditions: time 75-130 min
[28] = test system: HCT-116; assay: Antiproliferative activity against human HCT-116 cells assessed as remaining cell activity at 2 uM incubated for 72 hrs by luminescence assay relative to control; type: functional
[29] = test system: TMD8; assay: Induction of apoptosis in human TMD8 cells assessed as early apoptotic cells at 1 uM incubated for 24 hrs by Annexin V-FITC/PI staining based flow cytometric analysis (reference value: 0.24%); type: functional
[30] = test system: TMD8; assay: Induction of apoptosis in human TMD8 cells assessed as late apoptotic cells at 1 uM incubated for 24 hrs by Annexin V-FITC/PI staining based flow cytometric analysis (reference value: 1.54%); type: functional
[31] = AUC (0 to t) in CB.17 SCID mouse xenografted with human TMD8 cells at 25 mg/kg, po measured upto 24 hrs by LC-MS/MS analysis; type: ADME, organism-based; design: dose 25 mg/kg, time < 24 hrs, route po; conditions: in vivo
[32] = test system: CCRF-CEM; assay: Antiproliferative activity against human CCRF-CEM cells incubated for 72 hrs by luminescence assay; type: functional, cell-based
[33] = test system: CWR22R; assay: Antiproliferative activity against human 22Rv1 cells incubated for 72 hrs by luminescence assay; type: functional, cell-based; conditions: 22Rv1, 72 h

Sequence of Histone deacetylase 1 (Q13547 whole entry): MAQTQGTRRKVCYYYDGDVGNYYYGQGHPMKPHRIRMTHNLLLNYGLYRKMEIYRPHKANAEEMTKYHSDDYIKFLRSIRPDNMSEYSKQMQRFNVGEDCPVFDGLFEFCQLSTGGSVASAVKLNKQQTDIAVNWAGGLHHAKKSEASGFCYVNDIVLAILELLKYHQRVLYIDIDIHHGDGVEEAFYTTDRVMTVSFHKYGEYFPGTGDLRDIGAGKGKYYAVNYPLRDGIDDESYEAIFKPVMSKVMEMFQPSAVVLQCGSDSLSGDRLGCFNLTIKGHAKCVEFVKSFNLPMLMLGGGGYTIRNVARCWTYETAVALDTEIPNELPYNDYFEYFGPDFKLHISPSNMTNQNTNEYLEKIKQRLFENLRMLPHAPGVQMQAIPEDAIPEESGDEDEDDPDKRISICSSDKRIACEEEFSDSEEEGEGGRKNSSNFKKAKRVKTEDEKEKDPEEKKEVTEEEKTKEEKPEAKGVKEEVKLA
Sequence of Histone deacetylase 3 (O15379 whole entry): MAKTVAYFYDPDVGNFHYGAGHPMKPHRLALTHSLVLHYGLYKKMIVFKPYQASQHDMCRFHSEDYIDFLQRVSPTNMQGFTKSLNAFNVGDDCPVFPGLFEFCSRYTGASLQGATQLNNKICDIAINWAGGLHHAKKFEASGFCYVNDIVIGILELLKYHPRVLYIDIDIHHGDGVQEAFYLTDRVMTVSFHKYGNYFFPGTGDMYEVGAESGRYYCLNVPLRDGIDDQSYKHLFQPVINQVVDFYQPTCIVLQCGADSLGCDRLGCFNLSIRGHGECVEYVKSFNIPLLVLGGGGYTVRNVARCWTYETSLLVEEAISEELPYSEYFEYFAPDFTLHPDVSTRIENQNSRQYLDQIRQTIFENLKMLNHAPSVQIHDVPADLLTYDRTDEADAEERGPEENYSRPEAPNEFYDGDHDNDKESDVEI

IC50 [1]: 8020 nM
AUC(0-t) at 24 h [2]: 9740 ng·h/mL
AUC(0-inf) [3]: 1040 ng·h/mL
MRT inf [5]: 0.805 h
IC50 [7]: 600 nM
IC50 [8]: 380 nM
MRT inf [11]: 0.821 h
IC50 [14]: 2410 nM
half-life [15]: 13.3 h
IC50 [16]: 2620 nM
IC50 [17]: 84.9 nM
MRT last at 24 h [18]: 0.812 h
IC50 [19]: 443 nM
IC50 [20]: 1580 nM
half-life [22]: 1.63 h
Cmax [23]: 1700 ng/mL
AUC(0-inf) [25]: 1230 ng·h/mL
IC50 [26]: 510 nM
half-life [27]: 2.88 h
AUC(0-t) at 24 h [31]: 1220 ng·h/mL
IC50 [32]: 480 nM
SMILES: Nc1ccccc1NC(=O)c1ccc(CN2CCC/C(=C\c3ccccn3)C2=O)cc1
Activity [4]: 10.3%
viability at 4 µM [6]: 57.4%
Activity [9]: 0.34%
IC50 [10]: 330 nM
Activity [12]: 9.64%
Activity [13]: 1.59%
viability at 0.5 µM [21]: 95.8%
viability at 1 µM [24]: 92.2%
Activity [28]: 44.01%
Activity [29]: 1.03%
Activity [30]: 3.13%
IC50 [33]: 1140 nM
